The values below come from patent US20050226878A1, “Therapeutic combinations and methods including IRM compounds” (3M Innovative Properties Company, priority 2003, published 2005).

The structures appear in SMILES notation.

The test system of experiment [1] is Peripheral blood mononuclear cells (PBMCs). In words: Example 1: IFN-α secreted by PBMCs treated with IRM1 after dexamethasone pre-incubation (ELISA). Format: cell-based, human. As to conditions: IRM1 1 μM, no dexamethasone, 24 hours. The source says:
(§1) Whole blood from healthy human donors was collected by venipuncture into EDTA vacutainer tubes (Becton Dickinson Labware, Lincoln Park, N.J.). Peripheral blood mononuclear cells (PBMCs) are separated from whole blood by density gradient centrifugation using HISTOPAQUE-1077 (Sigma-Aldrich Chemical Co., St. Louis, Mo.). The PBMCs are washed twice with Hank's Balanced Salts Solution (Celox Laboratories, Inc., Hopkins, Minn.) and then are suspended at 3-4×10^6 cells/mL in RPMI complete culture medium (Celox Laboratories, Inc., Hopkins, Minn.). The PBMC suspension was added to 48 well flat bottom sterile tissue culture plates (Becton Dickinson Labware, Lincoln Park, N.J.) containing an equal volume of RPMI complete media containing dexamethasone (Sigma Chemical Co., St. Louis, Mo.) at one of the dexamethasone concentrations indicated in Table 2. After one hour, IRMI was added to a final concentration of 1 μM, and then incubated at 37° C. for an additional 24 hours. Following incubation the cells were centrifuged for 5-10 minutes at 1000 rpm (˜200×g) at 4° C. […] The samples were analyzed for IFN-α and TNF-α secreted into the culture medium. The concentration of secreted IFN-α was determined by ELISA using a Human Multi-Species kit (PBL Biomedical Laboratories, Piscataway, N.J.). […]
A general note: ELISA stands for enzyme-linked immunosorbent assay.

Experiment [2] shares this test system. Kind of experiment: Example 1: TNF-α secreted by PBMCs treated with IRM1 after dexamethasone pre-incubation (ELISA). Type of experiment: cell-based, human. The conditions noted are these: IRM1 1 μM, no dexamethasone, 24 hours.
Description: as §1

The next experiment deals with male CFW mice. Kind of experiment: Example 3: serum TNF in mice challenged with IRM2 after oral dexamethasone (ELISA). Type of experiment: in vivo. The conditions noted are these: IRM2 10 mg/kg, no dexamethasone. As for the experimental part: A dexamethasone solution was prepared in saline and administered orally (3 mg/kg) to male CFW mice (Charles River Laboratories, Inc., Wilmington, Mass.) once or once daily for five days. Thirty minutes after the final administration of dexamethasone, the mice were challenged with a solution of IRM2 prepared in saline to provide a dose of 10 mg/kg. The mice were bled either 2 hours or 3 hours after being challenged with IRM2. Serum samples were analyzed by for TNF by ELISA as described in Example 1.

For experiment [3], the system named is Human PBMCs. In words: Example 4: IL-6 secreted by PBMCs with or without anti-TNF monoclonal antibody (ELISA). Type of experiment: cell-based. As to conditions: IRM2 1.0 μg/mL, LPS 0.1 μg/mL, 24 hours. As for the experimental part: (§2) Human PBMCs were collected and prepared as described in Example 1. The cells were incubated with an anti-TNF monoclonal antibody (mouse anti-human TNF, Promega Corp., Madison, Wis.). After one hour, the cells were treated with IRM compound, LPS, or left unstimulated, and then incubated for an additional 24 hours.
(§3) Secreted TNF-α and IL-6 were assayed by ELISA (Biosource International, Inc., Camarillo, Calif.). Results are expressed in pg/mL for each cytokine.

Experiment [4] deals with Human PBMCs. Kind of experiment: Example 4: TNF-α secreted by PBMCs with or without anti-TNF monoclonal antibody (ELISA). Type of experiment: cell-based. The conditions noted are these: IRM2 1.0 μg/mL, LPS 0.1 μg/mL, 24 hours. As for the experimental part:
as §2, §3

Experiment [5] has as its system Human PBMCs. In words: Example 2: TNF-α secreted by PBMCs treated with IRM compound or LPS after dexamethasone pre-incubation (ELISA). Type of experiment: cell-based. As to conditions: IRM2 1.0 μg/mL, LPS 0.1 μg/mL, 24 hours. As for the experimental part:
Human PBMCs were collected and prepared as described in Example 1. After one hour, the cells were treated with IRM compound, LPS, or left unstimulated, and then incubated for an additional 24 hours.
Secreted TNF-α was assayed by ELISA (Biosource International, Inc., Camarillo, Calif.).

Experiment [6] concerns Human PBMCs. Kind of experiment: Example 4: IFN secreted by PBMCs with or without anti-TNF monoclonal antibody (virus neutralization bioassay, A549 cells/encephalomyocarditis virus). As to conditions: IRM2 1.0 μg/mL, LPS 0.1 μg/mL, 24 hours. Type of experiment: cell-based. As for the experimental part:
as §2
Secreted IFN was assayed using a virus neutralization bioassay using A549 human lung carcinoma cells challenged with encephalomyocarditis. The details of the bioassay method have been described by G. L. Brennan and L. H. Kronenberg in “Automated Bioassay of Interferons in Micro-test Plates”, Biotechniques, June/July, 78, 1983, incorporated herein by reference. Briefly stated the method is as follows: A549 cells are incubated with dilutions of samples or a standard interferon at 37° C. for 24 hours. The incubated cells are then infected with an inoculum of encephalomyocarditis virus. The infected cells are incubated for an additional 24 hours at 37° C. before evaluating for viral cytopathic effect. The viral cytopathic effect is quantified by staining with crystal violet followed by visual scoring of the plates. Results are expressed as alpha reference units/mL based on the value obtained for NIH Human Leukocyte IFN standard.

In experiment [7] the test system is PBMCs. In words: Example 6: IFN-α induction by PBMCs with anti-TNF antibody or isotype control (ELISA, FIG. 1). Type of experiment: cell-based, human. As to conditions: for IFN-α produced in combination with anti-TNF antibody versus IRM alone: IRM 3 μM + 1 μg/mL anti-TNF antibody, FIG. 1B versus FIG. 1A. As for the experimental part:
(§4) Whole blood from healthy human donors was collected by venipuncture into EDTA vacutainer tubes (Becton Dickinson Labware, Lincoln Park, N.J.). […] The PBMCs are washed twice with Phosphate Buffered Saline (PBS, Biosource, Camarillo, Calif.) and then are suspended at 5×10^6 cells/mL in RPMI complete culture medium (Celox Laboratories, Inc., Hopkins, Minn.). One milliliter of the PBMC suspension and 1.5 milliliter of RPMI complete media were added to each well of a 24 well flat bottom sterile tissue culture plate (Becton Dickinson Labware, Lincoln Park, N.J.) for a final PBMC concentration of 2×10^6 cells/mL.
(§5) Following incubation the cells were centrifuged for 5-10 minutes at 1000 rpm (˜200×g) at 4° C. The cell-free culture supernatant was removed with a sterile polypropylene pipette and transferred to sterile polypropylene tubes. Samples were maintained at −70° C. until analysis.
(§6) The samples were analyzed for IFN-α, TNF-α and IFN-γ secreted into the culture medium. The concentration of secreted IFN-α was determined by ELISA using a Human Multi-Species kit (PBL Biomedical Laboratories, Piscataway, N.J.). Secreted TNF-α and IFN-γ were analyzed using a human-specific TNF-α BV™ or IFN-γ BV™ immunoassay (BioVeris Corp., Gaithersburg, Md.).

Experiment [8] concerns PBMCs. Kind of experiment: Example 6: TNF-α induction by PBMCs with anti-TNF antibody or isotype control (immunoassay, FIG. 2). Type of experiment: cell-based, human. The conditions noted are these: for TNF-α induced in combination with anti-TNF antibody: IRM 3 μM + 1 μg/mL anti-TNF antibody, FIG. 2B; for TNF-α induction: IRM 3 μM alone (isotype control antibody), FIG. 2A. As for the experimental part: as §4, §5, §6

Setting [9] is: +Ab (anti-TNF monoclonal antibody).

`CCOCc1nc2c(N)nc3ccccc3c2n1CC(C)(C)O` [IRM1, 4-amino-α,α-dimethyl-2-ethoxymethyl-1H-imidazo[4,5-c]quinolin-1-ethanol] gave an IFN in experiment [1] of 959 U/mL. This compound also registered a TNF in [2] of 3000 pg/mL.

For `Cc1nc2c(N)nc3ccccc3c2n1CC(C)(C)O` [IRM2, 4-amino-α,α,2-trimethyl-1H-imidazo[4,5-c]quinoline-1-ethanol], the “Serum TNF” value in the experiment with male CFW mice (2 hrs. post-challenge) turned out to be 2983 pg/mL; in the experiment on male CFW mice (3 hrs. post-challenge), 487 pg/mL. In addition, the IL-6 with Human PBMCs [3] (setting [9]) came out at 24189 pg/mL; in the experiment on Human PBMCs [3] (No Ab), 20137 pg/mL. Besides, the TNF in the experiment on Human PBMCs [4] (setting [9]) is 61 pg/mL; in the experiment with Human PBMCs [4] (No Ab), 1340 pg/mL. Moreover, the “Secreted TNF-α” value in the experiment on Human PBMCs [5] (0 μM Dex.) is reported as 1570 pg/mL; in the experiment on Human PBMCs [5] (0.01 μM Dex.) it was 775 pg/mL; with Human PBMCs [5] (0.1 μM Dex.), 224 pg/mL; in the experiment on Human PBMCs [5] (1.0 μM Dex.), 191 pg/mL. For the same compound, the IFN with Human PBMCs [6] (setting [9]) stood at 290 U/mL; with Human PBMCs [6] (No Ab), 460 U/mL.

For the compound `CCOCc1nc2c(N)nc3c(c2n1CC(C)(C)O)CCCC3` [IRM5, 4-amino-2-(ethoxymethyl)-α,α-dimethyl-6,7,8,9-tetrahydro-1H-imidazo[4,5-c]quinoline-1-ethanol], the “IFN-α produced in combination with anti-TNF antibody versus IRM alone” value in the experiment on PBMCs [7] is reported as “increased levels”. Besides, in the experiment on PBMCs [8], the “TNF-α induced in combination with anti-TNF antibody” value was “substantially limited” and the TNF-α induction result is “significant levels”.

In the case of `CCc1nc2c(N)nc3ccccc3c2n1CCCCNS(C)(=O)=O` [IRM8, N-[4-(4-amino-2-ethyl-1H-imidazo[4,5-c]quinolin-1-yl)butyl]methanesulfonamide], the “IFN-α produced in combination with anti-TNF antibody versus IRM alone” value in the experiment on PBMCs [7] is “increased levels”. For the same compound, the IFN-α induction entry in the experiment with PBMCs [7] (IRM 3 μM alone (isotype control antibody), FIG. 1A, compared to other IRM compounds) is recorded as “relatively potent inducer”. Moreover, the TNF-α induction entry in the experiment with PBMCs [8] was “relatively poor inducer”.

As to `COCCc1nc2c(N)nc3ccccc3c2n1CCOCCNC(=O)N1CCOCC1` [IRM12, N-(2-{2-[4-amino-2-(2-methoxyethyl)-1H-imidazo[4,5-c]quinolin-1-yl]ethoxy}ethyl)morpholine-4-carboxamide], the “IFN-α produced in combination with anti-TNF antibody versus IRM alone” value in the experiment with PBMCs [7] was “increased levels”. In the experiment with PBMCs [8], the “TNF-α induced in combination with anti-TNF antibody” value is “substantially limited” and the TNF-α induction result was “significant levels”.
